# Like-named read-outs stand apart in the source and are kept apart here.
# Experiments:
# [1] = biological target: T1, NTRK1 (SEQ ID No. 1) recombinant kinase (Homo sapiens, UniProt P04629); experiment: Recombinant NTRK1 kinase assay (ADP production coupled to pyruvate kinase/lactate dehydrogenase); assay type: biochemical; details: recombinant NTRK1 4.7 nM, ATP 1 mM
# T1 construct: purchased Invitrogen
# Excerpt: NTRK1 protein sequence used for screening (SEQ ID No. 1)
# [2] = biological target: T2, NTRK2 (SEQ ID No. 2) recombinant kinase (Homo sapiens, UniProt Q16620); experiment: Recombinant NTRK2 kinase assay (ADP production coupled to pyruvate kinase/lactate dehydrogenase); assay type: biochemical; details: recombinant NTRK2 4 nM, ATP 1 mM
# T2 construct: purchased Invitrogen
# T2 sequence (Q16620 with tags, fused parts or gaps): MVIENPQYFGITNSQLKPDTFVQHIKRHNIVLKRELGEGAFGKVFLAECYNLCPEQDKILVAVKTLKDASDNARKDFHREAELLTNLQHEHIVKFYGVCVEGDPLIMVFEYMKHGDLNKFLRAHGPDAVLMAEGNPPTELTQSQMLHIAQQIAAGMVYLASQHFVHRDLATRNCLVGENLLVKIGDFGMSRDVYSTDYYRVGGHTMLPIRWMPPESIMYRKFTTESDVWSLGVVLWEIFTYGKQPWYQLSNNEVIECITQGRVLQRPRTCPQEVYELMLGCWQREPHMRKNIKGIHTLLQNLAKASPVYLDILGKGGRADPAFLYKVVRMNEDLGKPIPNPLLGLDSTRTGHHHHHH
# Excerpt: NTRK2 protein sequence used for screening (SEQ ID No. 2)
# [3] = tested on: Transfected NIH-3T3 ETV6-NTRK3 cells; experiment: Transfected NIH-3T3 ETV6-NTRK3 cell proliferation assay (resazurin); assay type: cell-based; details: Mus musculus, NIH3T3, 144 h; transfected NIH-3T3 cells, six days, 0.5% FBS; read-out: IC50, inhibition of proliferation, ETV6-NTRK3 transfected NIH-3T3
# Description: Transfected NIH-3T3 ETV6-NTRK3 cells were obtained from the laboratory of James Fagin, MD (Memorial Sloan Kettering Cancer Center). Briefly, cells were grown in DMEM media supplemented with 10% characterized fetal bovine serum, 1% Penicillin/Streptomycin/L-glutamine solution (Life Technologies, Carlsbad, Calif.) and 1 μg/mL puromycin (Invitrogen, Carlsbad, Calif.) at 37 degrees Celsius, 5% CO2, and 95% humidity. Cells were allowed to expand until reaching approximately 75% confluency at which point they were subcultured or harvested for assay use.
# [4] = biological target: T3, TPM3-NTRK1 (Homo sapiens, UniProt P04629); experiment: KM-12 phospho-NTRK1 Western blot; assay type: cell-based; details: KM-12 cells, 4 h compound; read-out: IC50, inhibition of TPM3-NTRK1 phosphorylation
# T3 construct: chromosomal translocation of the kinase domain of NTRK1, NTRK2, or NTRK3 with a variety of N-terminal fusion partners; TPM3 N-terminal portion (fusion partner, P06753); endogenous in cells; host or cells: KM-12 (NCI DCTD Tumor Repository); also grown as subcutaneous xenograft in mice; the other entry of the earlier key: TPM3 (P06753, Tropomyosin alpha-3 chain)
# T3 sequence (P04629 with tags, fused parts or gaps): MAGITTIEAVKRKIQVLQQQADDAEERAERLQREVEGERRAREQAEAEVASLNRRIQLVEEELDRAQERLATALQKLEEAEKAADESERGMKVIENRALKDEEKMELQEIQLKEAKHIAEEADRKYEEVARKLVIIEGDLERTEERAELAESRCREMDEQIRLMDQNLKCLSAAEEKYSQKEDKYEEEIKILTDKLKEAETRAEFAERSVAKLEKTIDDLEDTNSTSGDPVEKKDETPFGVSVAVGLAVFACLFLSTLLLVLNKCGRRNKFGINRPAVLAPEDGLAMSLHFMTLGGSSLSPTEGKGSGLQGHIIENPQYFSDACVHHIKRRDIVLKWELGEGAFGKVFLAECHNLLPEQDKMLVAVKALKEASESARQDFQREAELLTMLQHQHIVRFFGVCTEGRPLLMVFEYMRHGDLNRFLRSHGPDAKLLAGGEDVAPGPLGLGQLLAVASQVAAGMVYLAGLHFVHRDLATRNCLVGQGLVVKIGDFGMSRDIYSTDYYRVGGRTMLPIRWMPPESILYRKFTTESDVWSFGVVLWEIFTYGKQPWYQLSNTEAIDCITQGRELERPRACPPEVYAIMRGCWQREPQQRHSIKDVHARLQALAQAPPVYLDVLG
# Description: Briefly, cells were grown in RPMI 1640 media supplemented with 10% characterized fetal bovine serum and 1% Penicillin/Streptomycin/L-glutamine solution (Invitrogen, Carlsbad, Calif.) at 37 degrees Celsius, 5% CO2, and 95% humidity. Cells were allowed to expand until reaching 70-95% confluency at which point they were subcultured or harvested for assay use.
# Two hundred fifty thousand cells in growth medium were added per well in a 24-well tissue-culture treated plate. The plate was incubated overnight at 37 degrees Celsius, 5% CO2, and 95% humidity. The next day, a serial dilution of test compound was added to the cells, and plates were incubated for 4 hours at 37 degrees Celsius, 5% CO2, and 95% humidity. Media was then aspirated, cells were washed with PBS, and then lysed. Cell lysates were separated by SDS-PAGE and transferred to PVDF. Phospho-NTRK1 (Tyr674/675) was detected using an antibody from Cell Signaling Technology (Beverly, Mass.), ECL Plus detection reagent (GE Healthcare, Piscataway, N.J.) and a Molecular Devices Storm 840 phosphorimager in fluorescence mode. Blots were stripped and probed for total NTRK1 using an antibody from Santa Cruz Biotech (Santa Cruz, Calif.). IC50 values were calculated using Prism software (Graphpad, San Diego, Calif.).
# [5] = biological target: T4, NTRK2 (Homo sapiens, UniProt Q16620); experiment: SK-N-SH (retinoic acid differentiated) phospho-NTRK2 Western blot; assay type: cell-based; details: SK-N-SH cells differentiated with all-trans retinoic acid, BDNF 100 ng/mL stimulated; read-out: IC50, inhibition of NTRK2 phosphorylation
# T4 construct: endogenous in cells; host or cells: SK-N-SH (ATCC HTB-11), differentiated with 10 µM all-trans retinoic acid
# T4 sequence (Q16620 32-822): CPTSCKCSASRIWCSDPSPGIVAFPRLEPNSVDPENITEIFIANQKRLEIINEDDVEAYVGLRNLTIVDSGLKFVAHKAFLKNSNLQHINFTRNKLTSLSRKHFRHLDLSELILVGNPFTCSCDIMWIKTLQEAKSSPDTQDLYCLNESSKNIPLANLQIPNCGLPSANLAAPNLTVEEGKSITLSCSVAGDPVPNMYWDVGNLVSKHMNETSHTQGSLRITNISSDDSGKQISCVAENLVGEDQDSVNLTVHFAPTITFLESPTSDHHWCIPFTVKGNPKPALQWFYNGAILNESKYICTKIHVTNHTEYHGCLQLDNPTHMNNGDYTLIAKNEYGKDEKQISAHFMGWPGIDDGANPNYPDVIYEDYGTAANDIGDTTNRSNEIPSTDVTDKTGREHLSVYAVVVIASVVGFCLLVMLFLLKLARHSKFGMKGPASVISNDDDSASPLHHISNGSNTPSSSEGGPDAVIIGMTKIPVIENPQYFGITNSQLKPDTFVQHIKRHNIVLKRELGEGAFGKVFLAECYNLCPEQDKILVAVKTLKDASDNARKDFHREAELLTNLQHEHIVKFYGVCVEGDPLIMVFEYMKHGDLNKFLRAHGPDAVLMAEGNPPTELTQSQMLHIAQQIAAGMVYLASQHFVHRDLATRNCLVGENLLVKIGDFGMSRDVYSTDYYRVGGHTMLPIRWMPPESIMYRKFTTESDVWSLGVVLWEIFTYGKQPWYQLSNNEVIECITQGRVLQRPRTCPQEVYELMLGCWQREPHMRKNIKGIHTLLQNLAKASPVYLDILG
# Description: SK-N-SH cells (catalog #HTB-11) were obtained from the American Type Culture Collection (ATCC; Manassas, Va.). Briefly, SK-N-SH cells were grown in MEM medium supplemented with 10% characterized fetal bovine serum and 1% Penicillin-Streptomycin-L-glutamine solution (Invitrogen, Carlsbad, Calif.) at 37 degrees Celsius, 5% CO2, and 95% humidity. Cells were allowed to expand until reaching 70-95% confluency at which point they were subcultured. To induce expression of NTRK2, cells were grown in growth medium containing 10 μM all-trans retinoic acid for ten to fourteen days prior to harvesting cells for assay use.
# (§1) Two hundred fifty thousand cells differentiated with 10 μM all-trans retinoic acid in growth medium were added per well in a 12-well tissue-culture treated plate. The plate was incubated overnight at 37 degrees Celsius, 5% CO2, and 95% humidity. The next day, growth media was aspirated, cells were washed with serum-free MEM media, and one milliliter serum-free MEM media was added per well. […] Phospho-NTRK2 (Tyr706/707) was detected using an antibody from Cell Signaling Technology (Beverly, Mass.), ECL Plus detection reagent (GE Healthcare, Piscataway, N.J.) and a Molecular Devices Storm 840 phosphorimager in fluorescence mode. […] IC50 values were calculated using Prism software (Graphpad, San Diego, Calif.).
# [6] = tested on: KM-12 TPM3-NTRK1 xenograft; experiment: KM-12 TPM3-NTRK1 xenograft model, single-agent efficacy; assay type: in vivo, Mice; details: PO, BID
# Excerpt: Mice were implanted subcutaneously and treatment began on Day 5. Treatments ended on Day 25 after three weeks of treatment.
# [7] = biological target: T5, NTRK1 kinase phosphorylation (TPM3-NTRK1) (Homo sapiens, UniProt P04629); experiment: KM-12 TPM3-NTRK1 xenograft model, inhibition of NTRK1 phosphorylation in tumors after a single dose; assay type: in vivo, Mice; details: KM12, mouse, po; for inhibition at 15 mg/kg: single dose 15 mg/kg PO; for inhibition at 7.5 mg/kg: single oral dose 7.5 mg/kg
# T5 construct: chromosomal translocation of the kinase domain of NTRK1, NTRK2, or NTRK3 with a variety of N-terminal fusion partners; TPM3 N-terminal portion (fusion partner, P06753); endogenous in cells; host or cells: KM-12 (NCI DCTD Tumor Repository); also grown as subcutaneous xenograft in mice; the other entry of the earlier key: TPM3 (P06753, Tropomyosin alpha-3 chain)
# Excerpt: (§2) Mice were implanted subcutaneously and a single treatment was given on Day 8. At time points after the single oral dose, tumors were resected, frozen, pulverized, and then lysed. Lysates were separated by SDS-PAGE and protein was transferred to PVDF. Phospho-NTRK1 (Tyr674/675) was detected using an antibody from Cell Signaling Technology (Beverly, Mass.), ECL Plus detection reagent (GE Healthcare, Piscataway, N.J.) and a Molecular Devices Storm 840 phosphorimager in fluorescence mode. Blots were stripped and probed for total NTRK1 using an antibody from Santa Cruz Biotech (Santa Cruz, Calif.).
# [8] = tested on: NIH-3T3 ETV6-NTRK3 xenograft; experiment: Transfected NIH-3T3 ETV6-NTRK3 xenograft model, single-agent efficacy; assay type: in vivo, Mice; details: 15 mg/kg, PO, BID, p<0.05
# Excerpt: Mice were implanted subcutaneously and treatment began on Day 4. Treatments ended on Day 24 after three weeks of treatment.
# [9] = tested on: NTRK3 kinase phosphorylation (ETV6-NTRK3); experiment: Transfected NIH-3T3 ETV6-NTRK3 xenograft model, inhibition of NTRK3 phosphorylation in tumors after a single dose; assay type: in vivo, Mice; details: single dose 15 mg/kg PO
# Excerpt: as §2, with “6.” for “8.”, “doses,” for “dose,”, “Phospho-NTRK3 (Tyr516)” for “Phospho-NTRK1 (Tyr674/675)”, “mode.” for “mode. Blots were stripped and probed for total NTRK1 using an antibody from Santa Cruz Biotech (Santa Cruz, Calif.).”
# [10] = biological target: T6, NTRK1 (Homo sapiens, UniProt P04629); experiment: K562 phospho-NTRK1 Western blot; assay type: cell-based; design: endogenous in cells; details: K562 cells, 4 h compound, NGF 100 ng/mL stimulated; read-out: IC50, inhibition of NTRK1 phosphorylation
# T6 sequence (P04629 33-796): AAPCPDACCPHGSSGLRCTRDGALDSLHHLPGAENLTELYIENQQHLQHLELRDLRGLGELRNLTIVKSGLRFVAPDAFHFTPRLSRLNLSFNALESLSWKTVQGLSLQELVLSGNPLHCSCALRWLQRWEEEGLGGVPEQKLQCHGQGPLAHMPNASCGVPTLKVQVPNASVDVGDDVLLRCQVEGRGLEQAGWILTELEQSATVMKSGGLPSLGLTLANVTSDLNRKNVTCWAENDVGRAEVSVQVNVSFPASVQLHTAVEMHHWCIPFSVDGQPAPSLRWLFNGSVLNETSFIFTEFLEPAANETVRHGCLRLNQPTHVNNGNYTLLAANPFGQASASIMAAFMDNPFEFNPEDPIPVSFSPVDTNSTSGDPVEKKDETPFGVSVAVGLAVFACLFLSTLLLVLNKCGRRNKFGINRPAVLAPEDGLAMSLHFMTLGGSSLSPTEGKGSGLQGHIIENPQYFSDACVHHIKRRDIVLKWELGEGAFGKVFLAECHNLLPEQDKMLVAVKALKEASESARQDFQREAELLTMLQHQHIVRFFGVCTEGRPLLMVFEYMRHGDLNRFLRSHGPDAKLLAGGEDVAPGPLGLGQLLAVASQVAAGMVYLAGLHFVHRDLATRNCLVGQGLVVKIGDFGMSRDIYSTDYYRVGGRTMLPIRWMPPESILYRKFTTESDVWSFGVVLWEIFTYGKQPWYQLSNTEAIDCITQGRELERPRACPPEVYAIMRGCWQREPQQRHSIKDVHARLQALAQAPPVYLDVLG
# Description: (§3) K562 cells (catalog #CCL-243) were obtained from the American Type Culture Collection (ATCC; Manassas, Va.). Briefly, K562 cells were grown in suspension in IMDM medium supplemented with 10% characterized fetal bovine serum and 1% Penicillin-Streptomycin-L-glutamine solution (Invitrogen, Carlsbad, Calif.) at 37 degrees Celsius, 5% CO2, and 95% humidity. Cells were allowed to expand until reaching one to three million cells per milliliter at which point they were subcultured or harvested for assay use.
# One million cells in serum-free IMDM media were added per well in a 24-well tissue-culture treated plate. A serial dilution of test compound was added to cells and plates were incubated for 4 hours at 37 degrees Celsius, 5% CO2, and 95% humidity. Cells were then stimulated for 10 minutes with 100 ng/mL NGF (R&D Systems, Minneapolis, Minn.). Cells pelleted by centrifugation, washed with PBS, then lysed. Cell lysates were separated by SDS-PAGE and transferred to PVDF. Phospho-NTRK1 (Tyr674/675) was detected using an antibody from Cell Signaling Technology (Beverly, Mass.), ECL Plus detection reagent (GE Healthcare, Piscataway, N.J.) and a Molecular Devices Storm 840 phosphorimager in fluorescence mode. Blots were stripped and probed for total NTRK1 using an antibody from Santa Cruz Biotech (Santa Cruz, Calif.). IC50 values were calculated using Prism software (Graphpad, San Diego, Calif.).
# [11] = biological target: T6, NTRK1; experiment: SK-N-SH phospho-NTRK1 Western blot; assay type: cell-based; design: endogenous in cells; host or cells: SK-N-SH (ATCC HTB-11); details: SK-N-SH cells, 4 h compound, NGF 100 ng/mL stimulated; read-out: IC50, inhibition of NTRK1 phosphorylation
# Description: as §3, with “SK-N-SH” for “K562”, “#HTB-11)” for “#CCL-243)”, “MEM” for “suspension in IMDM”, “70-95% confluency” for “one to three million cells per milliliter”
# as §1, with “cells” for “cells differentiated with 10 μM all-trans retinoic acid”, “24-well” for “12-well”, “well. A serial dilution of test compound was added to the cells, and plates were incubated for 4 hours at 37 degrees Celsius, 5% CO2, and 95% humidity. Cells were then stimulated for 10 minutes with 100 ng/mL NGF (R&D Systems, Minneapolis, Minn.).” for “well.”, “Phospho-NTRK1 (Tyr674/675)” for “Phospho-NTRK2 (Tyr706/707)”
# [12] = 3.75 mg/kg, not statistically significant
# T1 sequence (P04629 with tags, fused parts or gaps): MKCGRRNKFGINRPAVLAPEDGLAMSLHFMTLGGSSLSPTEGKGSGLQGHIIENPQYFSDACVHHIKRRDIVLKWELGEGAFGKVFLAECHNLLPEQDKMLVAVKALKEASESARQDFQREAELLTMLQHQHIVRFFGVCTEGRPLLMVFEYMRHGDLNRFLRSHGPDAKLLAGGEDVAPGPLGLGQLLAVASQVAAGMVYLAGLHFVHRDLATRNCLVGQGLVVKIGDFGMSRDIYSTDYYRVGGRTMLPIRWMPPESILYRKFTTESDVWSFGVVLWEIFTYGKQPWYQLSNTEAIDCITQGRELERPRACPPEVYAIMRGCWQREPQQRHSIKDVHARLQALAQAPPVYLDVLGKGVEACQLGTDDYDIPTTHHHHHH
compound,measurement,setting,value
"O=C(Nc1cc(Oc2cc(F)c(NC(=O)C3(C(=O)Nc4ccc(F)cc4)CC3)cc2F)ccn1)C1CC1 [Compound 1, N-(4-(2-(cyclopropanecarboxamido)pyridin-4-yloxy)-2,5-difluorophenyl)-N′-(4)cyclopropane-1,1-dicarboxamide]",IC50,[1],710 pM
same,IC50,[2],4600 pM
same,IC50,[3],440 pM
same,IC50,[4],1400 pM
same,IC50,[5],240 pM
same,Day 11 % T/C,[6]; [12],39%
same,tumor growth delay,[6]; [12],4.5 days
same,tumor growth delay,"[6]; 7.5 mg/kg, Day 5 to Day 25, p<0.05",11.4 days
same,Day 11 % T/C,"[6]; 7.5 mg/kg, p<0.05",22%
same,tumor growth delay,"[6]; 15 mg/kg, Day 5 to Day 25, p<0.05",17.8 days
same,Day 11 % T/C,"[6]; 15 mg/kg, p<0.05",16%
same,inhibition at 15 mg/kg,"[7]; 24 hours post dose, read-out: inhibition of NTRK1 phosphorylation",79%
same,inhibition at 15 mg/kg,"[7]; through 18 hours post dose, read-out: inhibition of NTRK1 kinase phosphorylation in vivo",~95%
same,inhibition at 7.5 mg/kg,[7]; 12 hours post dose,66%
same,inhibition at 7.5 mg/kg,[7]; 18 hours post dose,74%
same,inhibition at 7.5 mg/kg,[7]; 24 hours post dose,59%
same,inhibition at 7.5 mg/kg,[7]; for 8 hours,> 95%
same,tumor growth delay,[8]; Day 4 to Day 24,26.5 days
same,Day 8 % T/C,[8],6%
same,inhibition of NTRK3 phosphorylation,[9]; 18 hours post dose,63%
same,inhibition of NTRK3 phosphorylation,[9]; 24 hours post dose,23%
same,inhibition of NTRK3 kinase phosphorylation in vivo,[9]; through 12 hours post dose,> 95%
same,IC50,[10],690 pM
same,IC50,[11],1000 pM

# Reference: US20160101090A1, “INHIBITION OF TRK KINASE MEDIATED TUMOR GROWTH AND DISEASE PROGRESSION” (DECIPHERA PHARMACEUTICALS, LLC, priority 2014, published 2016)
